Laboratory results: patent US9169224B2, “Piperazinyl and piperidinyl ureas as modulators of fatty acid amide hydrolase” (Janssen Pharmaceutica NV, priority 2004, dated 2015)
Where a name gives a salt, the structure may show the parent alone.

Columns and labels:
Assay type in all cases: biochemical
[1] = target: T1, FAAH (Homo sapiens (Human), UniProt O00519); experiment: Assay Method 2: FAAH assay, cells transfected with human FAAH; details: T84 or human FAAH-transfected SK-N-MC cell homogenate, 3H-AEA tracer 80 nM, 1 h at rt
Method: Assay Method 2 A. Transfection of Cells with Human FAAH
(§1) A 10-cm tissue culture dish with a confluent monolayer of SK-N-MC cells was split 2 days (d) prior to transfection. Using sterile technique, the media was removed and the cells were detached from the dish by the addition of trypsin. One fifth of the cells were then placed onto a new 10-cm dish. Cells were grown in a 37° C. incubator with 5% CO2 in Minimal Essential Media Eagle with 10% Fetal Bovine Serum. After 2 d, cells were approximately 80% confluent. These cells were removed from the dish with trypsin and pelleted in a clinical centrifuge. The pellet was re-suspended in 400 μL complete media and transferred to an electroporation cuvette with a 0.4 cm gap between the electrodes. Supercoiled human FAAH cDNA (1 pg) was added to the cells and mixed. The voltage for the electroporation was set at 0.25 kV, and the capacitance was set at 960 μF. After electroporation, the cells were diluted into complete media (10 mL) and plated onto four 10-cm dishes. Because of the variability in the efficiency of electroporation, four different concentrations of cells were plated. The ratios used were 1:20, 1:10, and 1:5, with the remainder of the cells being added to the fourth dish. The cells were allowed to recover for 24 h before adding the selection media (complete media with 600 μg/mL G418). After 10 d, dishes were analyzed for surviving colonies of cells. Dishes with well-isolated colonies were used. Cells from individual colonies were isolated and tested.
(§2) T84 frozen cell pellets or transfected SK-N-MC cells (contents of 1×15 cm culture dishes) were homogenized in 50 mL of FAAH assay buffer (125 mM Tris, 1 mM EDTA, 0.2% Glycerol, 0.02% Triton X-100, 0.4 mM Hepes, pH 9). The assay mixture consisted of 50 μL of the cell homogenate, 10 μL of the test compound, and 40 pt of anandamide [1-^3H-ethanolamine] (^3H-AEA, Perkin-Elmer, 10.3 Ci/mmol), which was added last, for a final tracer concentration of 80 nM. The reaction mixture was incubated at rt for 1 h. During the incubation, 96-well Multiscreen filter plates (catalog number MAFCNOB50; Millipore, Bedford, Mass., USA) were loaded with 25 μL of activated charcoal (Multiscreen column loader, catalog number MACL09625, Millipore) and washed once with 100 μL of MeOH. Also during the incubation, 96-well DYNEX MicroLite plates (catalog number NL510410) were loaded with 100 μL of MicroScint40 (catalog number 6013641, Packard Bioscience, Meriden, Conn., USA). After the 1 h incubation, 60 μL of the reaction mixture were transferred to the charcoal plates, which were then assembled on top of the DYNEX plates using Centrifuge Alignment Frames (catalog number MACF09604, Millipore). The unbound labeled ethanolamine was centrifuged through to the bottom plate (5 min at 2000 rpm), which was preloaded with the scintillant, as described above. The plates were sealed and left at rt for 1 h before counting on a Hewlett Packard TopCount.

[2] = target: rat FAAH (Rattus norvegicus (Rat), UniProt P97612); experiment: Assay Method 3: FAAH assay, cells transfected with rat FAAH; details: T84 or rat FAAH-transfected SK-N-MC cell homogenate, 3H-AEA tracer 80 nM, 1 h at rt
Method: Assay Method 3 A. Transfection of Cells with Rat FAAH
as §1, with “rat” for “human”, “μg)” for “pg)”
as §2, with “μL” for “pt”

[3] = target: T1, FAAH; experiment: Assay Method 1: FAAH assay, T84 cell homogenate, 3H-anandamide hydrolysis; details: 3H-AEA tracer 200 nM, 1 h at rt
In short: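 Homogenate of human T84 cells in pH 9 Tris/EDTA buffer with 0.02% Triton X-100 was incubated with compound and 200 nM final 3H-anandamide for 1 h at rt. Released [3H]ethanolamine was separated from substrate through activated charcoal by centrifugation and quantified by scintillation counting.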

T1 sequence (O00519 whole entry): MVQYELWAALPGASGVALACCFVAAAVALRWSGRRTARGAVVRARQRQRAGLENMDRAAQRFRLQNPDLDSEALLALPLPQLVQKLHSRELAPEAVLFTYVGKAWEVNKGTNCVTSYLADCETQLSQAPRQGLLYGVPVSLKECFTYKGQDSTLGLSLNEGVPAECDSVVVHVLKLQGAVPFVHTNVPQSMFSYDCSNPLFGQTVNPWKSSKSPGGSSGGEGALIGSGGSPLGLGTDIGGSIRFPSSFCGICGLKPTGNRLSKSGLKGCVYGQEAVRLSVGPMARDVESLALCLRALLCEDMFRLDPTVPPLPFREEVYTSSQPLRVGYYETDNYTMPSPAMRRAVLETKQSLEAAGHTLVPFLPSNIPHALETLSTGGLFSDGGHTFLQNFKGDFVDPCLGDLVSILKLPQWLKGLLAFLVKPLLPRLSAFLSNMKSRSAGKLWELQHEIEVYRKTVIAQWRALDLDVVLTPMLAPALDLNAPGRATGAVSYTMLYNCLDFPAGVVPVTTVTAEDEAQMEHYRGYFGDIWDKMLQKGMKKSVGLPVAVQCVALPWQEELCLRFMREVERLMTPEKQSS
Chain of rat FAAH (P97612 whole entry): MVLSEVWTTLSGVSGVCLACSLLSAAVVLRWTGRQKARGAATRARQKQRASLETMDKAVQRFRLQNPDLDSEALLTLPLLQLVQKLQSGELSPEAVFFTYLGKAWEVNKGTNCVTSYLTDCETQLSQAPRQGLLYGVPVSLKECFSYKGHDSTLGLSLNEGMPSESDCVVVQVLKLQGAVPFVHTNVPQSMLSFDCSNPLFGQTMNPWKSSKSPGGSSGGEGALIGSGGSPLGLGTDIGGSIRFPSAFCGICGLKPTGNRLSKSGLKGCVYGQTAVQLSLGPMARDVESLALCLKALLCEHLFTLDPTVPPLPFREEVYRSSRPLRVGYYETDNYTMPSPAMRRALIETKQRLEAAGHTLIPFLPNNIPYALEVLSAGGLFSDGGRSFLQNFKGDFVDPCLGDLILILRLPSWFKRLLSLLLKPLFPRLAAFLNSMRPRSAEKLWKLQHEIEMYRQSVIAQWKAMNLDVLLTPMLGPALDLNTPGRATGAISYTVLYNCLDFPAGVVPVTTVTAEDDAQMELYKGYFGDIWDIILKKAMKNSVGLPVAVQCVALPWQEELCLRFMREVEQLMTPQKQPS

Structure (SMILES) | IC50 [1] [µM] | IC50 [2] [µM] | IC50 [3] [µM]
O=C(Nc1ccncc1)N1CCN(Cc2ccc3c(c2)OC(F)(F)O3)CC1 [Example 151, 4-(2,2-Difluoro-benzo[1,3]dioxol-5-ylmethyl)-piperazine-1-carboxylic acid pyridin-4-ylamide] | 1.7 | 2 | –
O=C(Nc1ccncn1)N1CCN(Cc2ccc(Br)c(Br)c2)CC1 [Example 154, 4-(3,4-Dibromo-benzyl)-piperazine-1-carboxylic acid pyrimidin-4-ylamide] | 0.282 | 2 | –
COC(=O)c1ccc(NC(=O)N2CCN(Cc3cnc4ccccc4c3)CC2)cc1 [Example 107, 4-[(4-Quinolin-3-ylmethyl-piperazine-1-carbonyl)-amino]-benzoic acid methyl ester] | 0.65 | 8 | –
O=C(Nc1ncccn1)N1CCN(Cc2ccc3c(c2)OCO3)CC1 [Example 148, 4-Benzo[1,3]dioxol-5-ylmethyl-piperazine-1-carboxylic acid pyrimidin-2-ylamide] | > 10 | 10 | –
O=C(Nc1ncccn1)N1CCN(Cc2cnc3ccccc3c2)CC1 [Example 145, 4-Quinolin-3-ylmethyl-piperazine-1-carboxylic acid pyrimidin-2-ylamide] | 8 | 10 | –
O=C(Nc1nccs1)N1CCN(Cc2cnc3ccccc3c2)CC1 [Example 158, 4-Quinolin-3-ylmethyl-piperazine-1-carboxylic acid thiazol-2-ylamide] | > 10 | 10 | –
O=C(Nc1ccncn1)N1CCN(Cc2cnc3ccccc3c2)CC1 [Example 152, 4-Quinolin-3-ylmethyl-piperazine-1-carboxylic acid pyrimidin-4-ylamide] | 4 | 10 | –
O=C(O)c1ccccc1NC(=O)N1CCN(Cc2cnc3ccccc3c2)CC1 [Example 140, 2-[(4-Quinolin-3-ylmethyl-piperazine-1-carbonyl)-amino]-benzoic acid (potassium salt)] | > 10 | 10 | –
COC(=O)c1ccccc1NC(=O)N1CCN(Cc2cnc3ccccc3c2)CC1 [Example 105, 2-[(4-Quinolin-3-ylmethyl-piperazine-1-carbonyl)-amino]-benzoic acid methyl ester] | > 10 | 10 | –
O=C(Nc1ccncn1)N1CCN(Cc2ccc3c(c2)OC(F)(F)O3)CC1 [Example 153, 4-(2,2-Difluoro-benzo[1,3]dioxol-5-ylmethyl)-piperazine-1-carboxylic acid pyrimidin-4-ylamide] | 1 | 60 | –

Second part, the compound after the results:

IC50 [1] [µM] | IC50 [2] [µM] | IC50 [3] [µM] | Structure (SMILES)
4 | 10 | – | O=C(Nc1ccccn1)N1CCN(Cc2ccc3c(c2)OCO3)CC1 [Example 149, 4-Benzo[1,3]dioxol-5-ylmethyl-piperazine-1-carboxylic acid pyridin-2-ylamide]
0.23 | 2 | – | COC(=O)c1cccc(NC(=O)N2CCN(Cc3cnc4ccccc4c3)CC2)c1 [Example 106, 3-[(4-Quinolin-3-ylmethyl-piperazine-1-carbonyl)-amino]-benzoic acid methyl ester]
5 | 8 | – | O=C(O)c1cccc(NC(=O)N2CCN(Cc3cnc4ccccc4c3)CC2)c1 [Example 141, 3-[(4-Quinolin-3-ylmethyl-piperazine-1-carbonyl)-amino]-benzoic acid (potassium salt)]
4.1 | 4 | – | O=C(Nc1cccnc1)N1CCN(Cc2cnc3ccccc3c2)CC1 [Example 142, 4-Quinolin-3-ylmethyl-piperazine-1-carboxylic acid pyridin-3-ylamide]
> 10 | 10 | – | CN(C(=O)N1CCN(Cc2ccc(Br)c(Br)c2)CC1)c1ccccc1 [Example 160, 4-(3,4-Dibromo-benzyl)-piperazine-1-carboxylic acid methyl-phenyl-amide]
0.023 | 0.265 | 0.017 | O=C(Nc1ccccc1)N1CCN(Cc2ccc3ccccc3c2)CC1 [Example 18, 4-Naphthalen-2-ylmethyl-piperazine-1-carboxylic acid phenylamide]
2 | 10 | – | O=C(Nc1ccncc1)N1CCN(Cc2cnc3ccccc3c2)CC1 [Example 144, 4-Quinolin-3-ylmethyl-piperazine-1-carboxylic acid pyridin-4-ylamide]
1.8 | 8 | – | O=C(Nc1ccccn1)N1CCN(Cc2cnc3ccccc3c2)CC1 [Example 143, 4-Quinolin-3-ylmethyl-piperazine-1-carboxylic acid pyridin-2-ylamide]
3 | 10 | – | O=C(Nc1ccncc1)N1CCN(Cc2ccc3c(c2)OCO3)CC1 [Example 147, 4-Benzo[1,3]dioxol-5-ylmethyl-piperazine-1-carboxylic acid pyridin-4-ylamide]
0.84 | 8 | – | O=C(Nc1ccccc1)N1CCN(Cc2cnc3ccccc3n2)CC1 [Example 156, 4-Quinoxalin-2-ylmethyl-piperazine-1-carboxylic acid phenylamide]
0.065 | 0.35 | – | O=C(Nc1ccccc1)N1CCN(Cc2ccc(Cl)c(Cl)c2)CC1 [Example 157, 4-(3,4-Dichloro-benzyl)-piperazine-1-carboxylic acid phenylamide]
8 | 10 | – | O=C(O)c1ccc(NC(=O)N2CCN(Cc3cnc4ccccc4c3)CC2)cc1 [Example 155, 4-[(4-Quinolin-3-ylmethyl-piperazine-1-carbonyl)-amino]-benzoic acid]
0.38 | 6.5 | – | O=C(Nc1cccnc1)N1CCN(Cc2ccc3c(c2)OCO3)CC1 [Example 146, 4-Benzo[1,3]dioxol-5-ylmethyl-piperazine-1-carboxylic acid pyridin-3-ylamide]
